Measurements reported in US20110021471A1, “REDUCING Abeta42 LEVELS AND Abeta AGGREGATION” (priority 2007, published 2011).
Where two headings read alike, the source gives them in different places.

Tests used:
Tg2576 mice = assay: Acute oral dosing of Tg2576 mice, brain soluble Aβ after 4 hours; type: in vivo, mouse
Protocol: (§1) FIG. 2. Aβ modulating agents can inhibit Aβ aggregation, and agents that bind Aβ amyloid can modulate Aβ42 production. […] (C) Aβ42 modulating agents inhibit naturally secreted oligomer formation. 7PA2 cells were treated with fenofibrate, FT-1, or FT-9 at 50 μM and oligomers assessed by IP Western blotting. […] (D) FT-9, an Aβ42 reducing agent, can inhibit Aβ42 aggregation in vitro.
FIG. 13. Compounds that bind Aβ are GSMs in vitro and in vivo. (A) A cell-based screen of Aβ-binders identified molecules that increase Aβ42 (DAPH) or decrease Aβ42 (Bis-ANS, X-34 or chrysamine G (CG)). Data are mean±s.e.m., n=3. (B) X-34 is an Aβ42-lowering GSM. Changes in amyloid-β peptide amounts after X-34 treatment are shown. Data are presented as percentage control±s.e.m., n=3. EC50 values were calculated. […] NA, not applicable. (C) X-34 binds to APP(C100)-Flag and decreases labeling by GSM photoprobes. Biotin incorporation into APP by Fen-B and Flurbi-BpB is presented as percentage of control (peptide without X-34)±s.e.m., n=2. (D) X-34 lowers Aβ42 in Tg2576 mice after 4 h. […] Data are presented as amyloid-β percentage of control relative to vehicle±s.e.m. Animals per group (n). Asterisk, P,0.05; two asterisks, P,0.01; ANOVA with Dunnett's post-hoc analysis.
Finally, X-34 was tested for its ability to modulate Aβ42 amounts in an APP transgenic mouse (Tg2576).

APP wild-type cells = assay: Aβ modulation in APP wild-type cells; type: cell-based; set-up: Aβ42 raised: dose or concentration left out as unconfirmed
Protocol: (§2) (A) and (B) The sequences of wildtype (WT; A) APP and the mutated substrate (B) containing the homologous region (italic, underlined) of the NOTCH transmembrane domain (TMD) in APP where GSMs are hypothesized to bind. […] Bottom row, FT-1 ([…]) raised Aβ42 200% in APP wild-type cells (A); however, in APP-NOTCH TMD cells (B), FT-1 caused minimal changes in the Aβ42 (95%) or Aβ40 (90%) signal. Data are presented as amyloid-β percentage of control±s.e.m., n=3.
FIG. 19. Substitution of human Notch sequence in the APP transmembrane domain (TMD) changes sensitivity to modulation. (A) Site-directed mutagenesis was used to exchange the analogous region of the human Notch TMD (bold and underlined) for a section (bold and underlined) of wild-type APP (APPwt) we have shown to be labeled by GSMs. The new substrate (APP-Notch TMD) is cleaved by γ-secretase primarily after valine and alanine residues corresponding to 40 and 42 in APPwt (arrows). […] The beginning (1) N-terminal amino acid (AA) to the ending C-terminal AA is shown above each peak, with the molecular weight (m/z) below. 1-40 and 1-42 are detected as the two major species in APP-Notch TMD conditioned media. It should be noted that the mutagenesis strategy to create APPNotch TMD led to a single AA deletion relative to APPwt. […] Both cell lines were treated (6 hours) with L-685,458 (10 μM), which is hypothesized to target the active site aspartate residues, media was collected, and analyzed for changes in Aβ levels. […]
To test the hypothesis that mutation of the GSM binding site in APP should alter sensitivity to GSMs, a portion of the GSM binding site in APP was exchanged with the analogous region of human NOTCH (FIGS. 18A and 18B; FIG. 19). […] Although the molecular weight and abundance of each chimeric peptide differed from amyloid-β peptides from APP, the main species produced from the APP-NOTCH TMD construct had identical C-termini to Ab1-40 and Ab1-42, and could be quantified by enzyme-linked immunosorbent assays (ELISAs; FIG. 19). […]

[1] = test system: 7PA2 cells (CHO cells stably expressing human APP751 V717F); assay: 7PA2 cells: Aβ oligomers (IP/western) and Aβ ELISA; type: cell-based, Chinese hamster; conditions: for naturally secreted oligomer formation: 50 μM, IP Western blotting; for Aβ42 production in 7PA2 cells / dimeric and trimeric Aβ species: FT-9 and FT-1 20 μM, fenofibrate 100 μM, ~16 hours
Protocol: FIG. 17. γ-secretase modulators decrease the production of cell derived Aβ oligomers. CHO cells stably expressing human APP751 containing the familial Alzheimer's disease mutation V717F (referred to as 7PA2 cells) were incubated for ˜16 hours in the presence of GSMs. […] Aβ40 levels were decreased to varying degrees (26-35%; Li-Cor Odyssey). (B) and (C) Because the extended incubation times necessary to reliably detect Aβ oligomers in this assay can be toxic, we carried out additional dose response studies with fenofibrate and FT-9 to verify that decreases in Aβ oligomers levels were not related to toxicity or global inhibition of Aβ production. […] (C) Increasing doses of FT-9 reduced the detection of Aβ oligomeric bands and Aβ42 decreased preferentially with decreases in Aβ40 at higher doses. […] Aβ species present in conditioned medium were detected by IP using the polyclonal anti-Aβ antibody, DW6 and subsequent immunoblotting with either 6E10 or the 42-specific, anti-Aβ antibody 21F12. Aβ levels in the samples analyzed via IP/western were also quantified via sandwich ELISA. Data presented as percent vehicle control±s.e.m., n=2.
To address the question of whether GSMs influence the concentration of secreted amyloid-β oligomers, such as those released by Chinese hamster ovary (CHO) cells expressing the APP V717F mutation (referred to as 7PA2 cells), which alter long-term potentiation and perturb the memory of learned behavior when injected into rat brain, 7PA2 cells were treated with two Aβ42-raising GSMs and a novel Aβ42-lowering GSM (FIG. 17) (Walsh et al., Nature 416:535:539 (2002); Calabrese et al., Mol. Cell. Neurosci. 35:183-193 (2007)). Fenofibrate and FT-1 increased amounts of Aβ42 whereas FT-9 lowered Aβ42, but all three GSMs decreased amounts of amyloid-β dimers and trimers. […] In contrast to increased amyloid-β oligomer formation, when CHO cells are genetically manipulated to increase Aβ42 production by co-expression of APP and FAD-linked mutant PSEN1 proteins, both Aβ42-lowering and -raising GSMs decreased oligomer formation (Xia et al., J. Biol. Chem. 272: 7977-7982 (1997)).

APP-NOTCH TMD cells = assay: Aβ modulation in APP-NOTCH TMD cells; type: cell-based, human; set-up: Aβ42 signal (percentage of control) / Aβ40 signal (percentage of control): dose or concentration left out as unconfirmed
Protocol: as §2
FIG. 19. Substitution of human Notch sequence in the APP transmembrane domain (TMD) changes sensitivity to modulation. (A) Site-directed mutagenesis was used to exchange the analogous region of the human Notch TMD (bold and underlined) for a section (bold and underlined) of wild-type APP (APPwt) we have shown to be labeled by GSMs. The new substrate (APP-Notch TMD) is cleaved by γ-secretase primarily after valine and alanine residues corresponding to 40 and 42 in APPwt (arrows). […] The beginning (1) N-terminal amino acid (AA) to the ending C-terminal AA is shown above each peak, with the molecular weight (m/z) below. 1-40 and 1-42 are detected as the two major species in APP-Notch TMD conditioned media. It should be noted that the mutagenesis strategy to create APPNotch TMD led to a single AA deletion relative to APPwt. The correct change in molecular weight caused by the introduced mutations were confirmed by the mass spectrum. For simplicity the peptides are referenced by their C-terminal residues relative to Aβ (40, 42, etc). Representative mass spectra are shown from multiple IP reactions (3) and duplicate spots. […] Both cell lines were treated (6 hours) with L-685,458 (10 μM), which is hypothesized to target the active site aspartate residues, media was collected, and analyzed for changes in Aβ levels. The 40 and 42 Aβ reactive species from both cell lines were inhibited by L-685,458 with equal sensitivity (no significant difference; 40 p>0.5; 42 p>0.4; t test; n=3).
To test the hypothesis that mutation of the GSM binding site in APP should alter sensitivity to GSMs, a portion of the GSM binding site in APP was exchanged with the analogous region of human NOTCH (FIGS. 18A and 18B; FIG. 19). The chimeric construct was used because the NOTCH transmembrane domain (TMD) appears resistant to GSM effects. The APP NOTCH TMD construct produced a spectrum of chimeric amyloid-β species in conditioned cell media (FIG. 19). Although the molecular weight and abundance of each chimeric peptide differed from amyloid-β peptides from APP, the main species produced from the APP-NOTCH TMD construct had identical C-termini to Ab1-40 and Ab1-42, and could be quantified by enzyme-linked immunosorbent assays (ELISAs; FIG. 19). The relative sensitivity to GSMs of APP-NOTCH TMD versus APP was assayed in stably transfected cells. […]

human H4 cells = assay: Steroid compounds, Aβ42 levels in human H4 cells (FIG. 2, FIG. 21); type: cell-based
Source text: FIG. 21 contains the results of an in vitro assay, studying the effects of various steroid compounds on Aβ42 levels in human H4 cells. Chemical names and molecular weights of each steroid are presented.
Agents having the ability to modulate Aβ42 levels were identified as follows. […] It was hypothesized that it might be possible to convert Aβ42 increasing agents into Aβ42 reducing agents by incorporating an acidic group into the core structure. For steroids, multiple steroids containing an acidic group were obtained from Steraloids Inc. and screened for the ability to reduce Aβ42 levels.

H4Bri-C99 (CTF-3) = conditions: 6 hours
Protocol: FIG. 6. […] Parent GSMs and biotin tagged photoactivatable GSMs were evaluated for their effects on Aβ secreted from H4Bri-C99 (CTF-3). Cells were treated with compounds for 6 hours and Aβ measured by ELISA. […] Changes in Aβ (percent control)±s.e.m., n=3.
Photoaffinity labelling. All experiments used the following general protocol. Samples (recombinant or synthetic peptides, cell lysates and membrane preparations) were exposed in borosilicate test tubes to ultraviolet light (350 nm) in a Rayonet Photoreactor R100 (RPR-3500 lamps, Southern New England Ultra Violet Company) in a cold room (4° C.) for 30 minutes or as otherwise noted. Crosslinked samples were analyzed by ELISA for biotin incorporation, or analyzed directly by SDS-PAGE (Criterion-XT, Bio-Rad), or after precipitation with streptavidin ultralink plus beads (Pierce). After immunblotting, proteins were detected using chemiluminesence (ECL Plus, GEHealthcare) or near-infrared fluorescence (LiCor Odyssey). Full-length APP and APP CTFs (CTF83, CTF99) were detected with CT20, a rabbit polyclonal antibody against the C-terminus of APP. Biotin was detected with an affinity-purified rabbit polyclonal antibody (Bethyl). Cell-based screens for amyloid-β modulation. Human H4 neuroglioma cells (American Type Culture Collection, ATCC) expressing wild-type APP695 protein or CTF105 fused to secreted alkaline phosphatase which is efficiently processed to APP CTFs (CTF83, CTF99) and produce high levels of amyloid-β, were used for the cell-based screens as previously described. Cells were incubated for 5-6 hours in the presence of the various compounds in Opti-Mem culture medium containing 1% fetal bovine serum. Compounds were dissolved in dimethylsulphoxide (DMSO; 0.5% final concentration) and diluted 200-fold. Media was analyzed for various amyloid-β species (40, 42 and total) using ELISAs as described herein. The EC50 values for changes in amyloid-β species were calculated by fitting sigmoid dose-response curves using nonlinear regression in Prism (GraphPad) and are shown as values±s.e.m. Statistical analysis. Data are presented as either percentage control or mean±s.e.m. Results were analyzed using Prism (Graph Pad) with t-tests or one-way analysis of variance analyses (ANOVAs) with Dunnett's post-hoc correction for comparison of multiple samples to a control. Statistical significance is shown as P,0.05 (one asterisk), P,0.01 (two asterisks) or P,0.001 (three asterisks).

Aβ42 = Aβ42 (Homo sapiens, UniProt P05067); assay: Aβ42 aggregation in vitro (native gel electrophoresis); type: biochemical; conditions: 1 μM, 37° C.
Aβ42, sequence (P05067 672-713 limits assumed): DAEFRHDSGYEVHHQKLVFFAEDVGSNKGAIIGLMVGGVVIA
Protocol: as §1

C[C@H](NC(=O)[C@@H](O)c1cc(F)cc(F)c1)C(=O)N[C@@H]1C(=O)N(C)c2ccccc2-c2ccccc21 [LY-411575]
selectivity of Aβ reduction (Aβ42 vs Aβ40) (Tg2576 mice; Tg2576, oral gavage, 4 hours): reduces Aβ40 preferentially

CC(C#N)c1ccc([N+](=O)[O-])c(Oc2cc(Cl)cc(Cl)c2)c1 (stereo not drawn) [FT-1, 2-(3-(3,5-dichlorophenoxy)-4-nitrophenyl)propanenitrile]
Aβ42 raised (APP wild-type cells; APP wild-type cells): 200% | naturally secreted oligomer formation [1]: inhibit oligomer formation | Aβ42 production in 7PA2 cells [1]: increase production of Aβ42 | dimeric and trimeric Aβ species [1]: reduce production of dimeric and trimeric Aβ species | Aβ40 signal (percentage of control) (APP-NOTCH TMD cells; APP-NOTCH TMD cells): 90% | Aβ42 signal (percentage of control) (APP-NOTCH TMD cells; APP-NOTCH TMD cells): 95%

C[C@H](CCC(=O)O)[C@H]1CC[C@H]2[C@@H]3[C@H](O)C[C@@H]4C[C@H](O)CC[C@]4(C)[C@H]3CC[C@]12C [5β cholanic acid 3a, 7a diol]
Aβ42 levels (acidic steroids) (human H4 cells): does not

CC(C)C[C@H](NC(=O)[C@H](Cc1ccccc1)C[C@@H](O)[C@H](Cc1ccccc1)NC(=O)OC(C)(C)C)C(=O)N[C@@H](Cc1ccccc1)C(N)=O [L-685,458]
40 and 42 Aβ reactive species (APP wild-type cells; 10 μM, 6 hours, APPwt): inhibited | 40 and 42 Aβ reactive species (APP-NOTCH TMD cells; 10 μM, 6 hours, APP-Notch TMD): inhibited

C[C@@H](C(=O)O)c1ccc(-c2ccccc2)c(F)c1 [Tarenflurbil]
Aβ42 (direction of change) (H4Bri-C99 (CTF-3)): lowered Aβ42 | total Aβ levels (H4Bri-C99 (CTF-3)): without decreasing total Aβ levels | lowering of Aβ42 in the brains (Tg2576 mice; 50 mg kg21, Tg2576 mice, 4 h): 25%

C[C@H](CCC(=O)O)[C@H]1CC[C@H]2[C@@H]3CC[C@@H]4CCCC[C@]4(C)[C@H]3CC[C@]12C [5β-cholanic acid]
Aβ42 levels (acidic steroids) (human H4 cells): one of the more potent Aβ42 reducing agents | Aβ42 levels (acidic steroids) (human H4 cells; listed as 5-β-cholanic acid): most potent Aβ42 lowering GSM | Aβ42 levels (acidic steroids) (human H4 cells; listed as 5β-Cholanic acid): potently reduces Aβ42

CC(C(=O)O)c1cccc(Oc2cc(Cl)cc(Cl)c2)c1 (stereo not drawn) [FT-9, 2-(3-(3,5-dichlorophenoxy)phenyl)propanoic acid]
Aβ42 aggregation in vitro (Aβ42): inhibits Aβ42 aggregation | total Aβ (ELISA) in dose response studies [1]: did not decrease | naturally secreted oligomer formation [1]: inhibit oligomer formation | Aβ42 production in 7PA2 cells [1]: lowers Aβ42 | dimeric and trimeric Aβ species [1]: reduce production of dimeric and trimeric Aβ species
